Reference: patent US20120088807A1, “INTERLACED METHOD FOR TREATING CANCER OR A PRECANCEROUS CONDITION” (TAU THERAPEUTICS LLC, priority 2009, published 2012)

Columns and labels:
A10 cells = assay: Cell cycle analysis using flow cytometry and BUdR staining; type: cell-based
Procedure: Cell cycle analysis was performed using flow cytometry and BUdR staining. In FIG. 3, “Con” represents untreated, control cells. All other cell cultures were treated with nocodazole, which interferes with microtubule polymerization and blocks the cell cycle during M phase. […] Because A10 cells reside primarily in the cell cycle checkpoint between G0 and G1 (See “Con” in FIG. 3), evaluating the possibility that a pharmacologic agent inhibits transit out of that phase is not as straightforward as determining blockade at other cell cycle checkpoints. Therefore, cell cultures were treated for 24 hours with T channel calcium channel blockers mibefradil (mib), nickel (Ni) or TTL-1177 (a proprietary compound owned by the assignee Tau Therapeutics), before adding nocodazole. Absent an effect on the T channel blockers, cells would be locked at the cell cycle checkpoint between G2 and M by nocodazole as happened with cells treated with it alone.

D54 tumors [1] = assay: Interlaced therapy, human glioblastoma murine xenograft model (Example 4); type: in vivo, Mice
Procedure: Studies of interlaced therapy for human glioblastoma in a murine xenograft model using the D54 cell line were conducted. Mice bearing subcutaneous implants of D54 tumors, which were allowed to become established at a volume of about 100 mm^3, were treated with mibefradil at 40 mg/kg p.o. q.i.d. for 7 days or left untreated. On day seven, all animals received the S phase cytotoxin temozolamide at a dose of 25% of the LD10 over five days. Following two days of no treatment, mibefradil was re-started at a dose of 35 mg/kg p.o. q.i.d. in the group of mice which were originally treated with mibefradil. On day 20, the mean tumor volume in the temozolamide only group of mice was 173 mm^3 as compared to the temozolamide plus mibefradil group of mice, whose mean tumor volume was 102 mm^3 (p=0.0485; n=10/group; Student's pooled, two tailed t-test). A pooled, two tailed. Student's t-test over all seven tumor volume measurements yielded p=0.0329. There were no animals that were euthanized in either group due to tumor size. The mean volume in the control group, which received no intervention, was 1214 mm^3 with three animals euthanized because of tumor size.

D54 tumors [2] = assay: Interlaced therapy, human glioblastoma murine xenograft model, two cytotoxin rounds (Example 5); type: in vivo, Mice; details: over 30 days; subcutaneous D54; temozolamide 25% then 10% of LD10; mibefradil 40 then 35 mg/kg p.o. q.i.d.
Procedure: Further studies of interlaced therapy for human glioblastoma in a murine xenograft model using the D54 cell line were conducted. Mice bearing subcutaneous implants of D54 tumors, which were allowed to become established, were treated with mibefradil at 40 mg/kg p.o. q.i.d. for 7 days or left untreated. On day seven, all animals received the S phase cytotoxin temozolamide at a dose of 25% of the LD10 over five days. Following two days of no treatment, mibefradil was re-started at a dose of 35 mg/kg p.o. q.i.d. in the group of mice which were originally treated with mibefradil.

PANC 219 tumor = type: in vivo; details: mibefradil 65 mg/kg p.o. b.i.d.
Procedure: Pancreatic cancers resected from patients were immediately transplanted into the flanks of nude mice and maintained by serial, in vivo passage. Transplanted tumors were implanted at a volume of about 100 mm^3 and allowed to grow to 200 to 300 mm^3 before initiation of treatment. Mice bearing the PANC 219 tumor were either left untreated or treated with mibefradil at 65 mg/kg p.o. b.i.d. (n=10 in each group). Tumor growth was normalized to the size measured at the start of treatment.

[3] = A10 cells treated 24 hours with T channel blocker before adding nocodazole

COC(=O)Nc1nc2ccc(C(=O)c3cccs3)cc2[nH]1 [nocodazole]
effect on cell cycle transit (A10 cells; A10 cells, nocodazole alone): blocked cell cycle transit through M phase

[Ni] [nickel]
effect on cell cycle transit (A10 cells; [3]): arrested cells at the cell cycle checkpoint between G0 and G1

Cn1nnc2c(C(N)=O)ncn2c1=O [temozolamide]
mean tumor volume (D54 tumors [1]; day 20, subcutaneous D54, temozolamide 25% of LD10 over five days, mibefradil 40 then 35 mg/kg p.o. q.i.d., n=10/group): 173 mm^3
animals euthanized due to tumor size (D54 tumors [1]; subcutaneous D54, n=10/group): no animals
mean tumor volume (D54 tumors [2]): 156±65 mm^3

COCC(=O)O[C@]1(CCN(C)CCCc2nc3ccccc3[nH]2)CCc2cc(F)ccc2[C@@H]1C(C)C [mibefradil]
effect on cell cycle transit (A10 cells; [3]): arrested cells at the cell cycle checkpoint between G0 and G1
tumor regression (PANC 219 tumor; PANC 219 tumor in nude mice): did not cause tumor regression
tumor growth (PANC 219 tumor; PANC 219 tumor, growth normalized to size at start of treatment): controlled tumor growth
deaths in treatment group (PANC 219 tumor; n=10, day 9): One mouse in the treatment group died
